Some test systems named below: A549 NSCLC; HT29 colon; K-562 leukemia; NCI-H460 lung; RPMI-8226 leukemia; RXF 393 renal; SF-539 CNS; SK-MEL-5 melanoma; SNB-19 CNS; UACC-257 melanoma.
Holding throughout (test): DTP human tumour cell line panel, 48 h

Among the data in PubChem BioAssay (NCI) are GI50 and TGI values, retold here.

Each structure is given as a SMILES string.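 1) Cells in 96-well plates. 2) Compound, 48 h, 5 concentrations. 3) Linear interpolation between surrounding doses. 4) Unreached endpoint = highest concentration. Abbreviation: GI50, concentration required for 50% inhibition of growth. TGI marks complete inhibition of growth.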

In the case of `COc1ccc(-n2c(N)c(C(=O)NCCN3CCOCC3)c3nc4ccccc4nc32)cc1OC`, the GI50 in the test with A549 NSCLC is 6.08 µM; with HT29 colon it was 5.8 µM; in the test with K-562 leukemia it was 2.96 µM; in the test with NCI-H460 lung, 3.28 µM; in the test on RPMI-8226 leukemia it was 3.36 µM; in the test on RXF 393 renal, 34.1 µM. In addition, the GI50 in the test with SF-539 CNS was 7.8 µM; with SK-MEL-5 melanoma, 3.22 µM; with SNB-19 CNS it was 10.9 µM; in the test on UACC-257 melanoma it was 34.4 µM. The TGI in the test on A549 NSCLC, in the test on HT29 colon, with K-562 leukemia, in the test on NCI-H460 lung, in the test with RPMI-8226 leukemia and in the test with RXF 393 renal was more than 100 µM each time. For the same compound, the TGI in the test on SF-539 CNS, with SK-MEL-5 melanoma, in the test with SNB-19 CNS and with UACC-257 melanoma was more than 100 µM throughout.

As for `Cn1cccc1-c1cc(-c2ccc(Br)cc2)nc(N)c1C#N`, the GI50 with A549 NSCLC was more than 100 µM; in the test on HT29 colon, more than 100 µM; in the test on K-562 leukemia it was more than 100 µM; in the test with NCI-H460 lung, more than 100 µM; in the test with RPMI-8226 leukemia, 78.7 µM; in the test on RXF 393 renal, 30.3 µM. Further, the GI50 in the test on SF-539 CNS, in the test on SK-MEL-5 melanoma, in the test with SNB-19 CNS and with UACC-257 melanoma was more than 100 µM in each case. Besides, the TGI with A549 NSCLC, with HT29 colon, with K-562 leukemia, in the test with NCI-H460 lung, in the test with RPMI-8226 leukemia and in the test with RXF 393 renal was more than 100 µM throughout. Further, the TGI in the test on SF-539 CNS, in the test with SK-MEL-5 melanoma, in the test with SNB-19 CNS and in the test with UACC-257 melanoma was more than 100 µM throughout.

Consider `CC(O)CN(CCN(CC(C)O)CC(C)O)CC(C)O.O=[N+]([O-])O.[Cu+2]` (stereo not given), for which the GI50 was 46.5 µM in the test with A549 NSCLC; more than 100 µM in the test on HT29 colon; more than 100 µM with K-562 leukemia; 99.2 µM in the test with NCI-H460 lung; more than 100 µM with RPMI-8226 leukemia; more than 100 µM in the test with RXF 393 renal. The GI50 in the test on SF-539 CNS is more than 100 µM; in the test with SK-MEL-5 melanoma, 24.3 µM; in the test on SNB-19 CNS, 30.5 µM; in the test with UACC-257 melanoma, more than 100 µM. Moreover, the TGI in the test with A549 NSCLC, in the test on HT29 colon, in the test with K-562 leukemia, with NCI-H460 lung, in the test with RPMI-8226 leukemia and with RXF 393 renal was more than 100 µM each time. Further, the TGI in the test with SF-539 CNS was more than 100 µM; in the test on SK-MEL-5 melanoma, 58.2 µM; with SNB-19 CNS, 74.5 µM; in the test with UACC-257 melanoma, more than 100 µM.

As for `CCOC(=O)[C@H]1Nc2ccc(O)cc2C2c3ccccc3CC21` (stereo not given in full), the TGI was more than 100 µM with A549 NSCLC; more than 100 µM with HT29 colon; more than 100 µM in the test with K-562 leukemia; more than 100 µM in the test on NCI-H460 lung; more than 100 µM with RPMI-8226 leukemia; 91.9 µM with RXF 393 renal. The TGI in the test on SF-539 CNS, in the test with SK-MEL-5 melanoma, in the test with SNB-19 CNS and in the test with UACC-257 melanoma was more than 100 µM throughout.

As for `CCCCCCCCCCCCCC(=O)OCC1OC(OC)C(NC(=O)N(CCCl)N=O)C(O)C1O` (stereo not given), the TGI with A549 NSCLC was determined as 58.2 µM; in the test on HT29 colon, 50.4 µM; with K-562 leukemia it was 56.8 µM; with NCI-H460 lung, 25.1 µM; in the test on RPMI-8226 leukemia, 42.6 µM; in the test on RXF 393 renal, 32.1 µM. Moreover, the TGI with SF-539 CNS was 12.9 µM; in the test with SK-MEL-5 melanoma, 45.1 µM; in the test on SNB-19 CNS, more than 100 µM; in the test with UACC-257 melanoma, 30.2 µM.

Turning to `O=c1c2ccccc2nc(-c2ccc(Cl)cc2)n1O`, the TGI in the test on A549 NSCLC, in the test with HT29 colon, in the test on K-562 leukemia, with NCI-H460 lung, with RPMI-8226 leukemia and in the test with RXF 393 renal was more than 100 µM each time. For the same compound, the TGI is 64.7 µM in the test with SF-539 CNS, more than 100 µM in the test on SK-MEL-5 melanoma, more than 100 µM with SNB-19 CNS and 88.2 µM in the test with UACC-257 melanoma.

On to `CCOc1ccc(NC(=O)C2=C(C)NC(C)=C(C(=O)Nc3ccc(OCC)cc3)C2c2ccc([N+](=O)[O-])cc2)cc1`, for which the TGI is more than 100 µM in the test on A549 NSCLC; 86 µM with HT29 colon; more than 100 µM in the test on K-562 leukemia; more than 100 µM with NCI-H460 lung; 64.2 µM in the test on RPMI-8226 leukemia; more than 100 µM in the test with RXF 393 renal. Moreover, the TGI was more than 100 µM with SF-539 CNS, 74.3 µM in the test on SK-MEL-5 melanoma, more than 100 µM in the test on SNB-19 CNS and more than 100 µM in the test on UACC-257 melanoma.

As for `COc1cc(/C=C/C(=O)c2ccc(Nc3nc(Nc4ccc(F)cc4)nc(Nc4ccc(F)cc4)n3)cc2)cc(OC)c1OC`, the GI50 is 8.27 µM in the test on A549 NSCLC; 9.36 µM in the test on HT29 colon; 3 µM in the test with K-562 leukemia; 7.92 µM in the test on NCI-H460 lung; 1.81 µM in the test with RPMI-8226 leukemia; 2.74 µM in the test on RXF 393 renal. The GI50 with SF-539 CNS was 11.8 µM; with SK-MEL-5 melanoma, 3.4 µM; with SNB-19 CNS, 76.6 µM; in the test on UACC-257 melanoma it was 7.11 µM. Besides, the TGI with A549 NSCLC was more than 100 µM; in the test on HT29 colon, more than 100 µM; in the test on K-562 leukemia, more than 100 µM; in the test with NCI-H460 lung, more than 100 µM; in the test on RPMI-8226 leukemia, 35.2 µM; in the test with RXF 393 renal, 7.49 µM. Moreover, the TGI in the test on SF-539 CNS was more than 100 µM; in the test on SK-MEL-5 melanoma, 30.4 µM; in the test on SNB-19 CNS, more than 100 µM; in the test on UACC-257 melanoma, 61.1 µM.

`CCOC(=O)C(=Cc1ccccc1Br)C(=O)OCC`: the TGI in the test on A549 NSCLC was more than 100 µM; in the test on HT29 colon, 10.9 µM; in the test with K-562 leukemia, 13.4 µM; with NCI-H460 lung, more than 100 µM; with RPMI-8226 leukemia, more than 100 µM; with RXF 393 renal, 4.97 µM. Moreover, the TGI turned out to be 8.32 µM in the test with SF-539 CNS, 3.85 µM in the test on SK-MEL-5 melanoma, 6.01 µM with SNB-19 CNS and 14.7 µM in the test on UACC-257 melanoma.

For the compound `O=C(CC1C(=O)Nc2ccccc2S1=O)Nc1cccc(Cl)c1` (stereo not given), the TGI with A549 NSCLC was more than 100 µM; in the test on HT29 colon it was more than 55.1 µM; in the test with K-562 leukemia it was 29.2 µM; in the test on NCI-H460 lung, more than 83.2 µM; with RPMI-8226 leukemia it was more than 31 µM; in the test on RXF 393 renal it was 45.6 µM. Also, the TGI in the test on SF-539 CNS was 43.7 µM; in the test on SK-MEL-5 melanoma it was more than 46.1 µM; with SNB-19 CNS, more than 88.9 µM; with UACC-257 melanoma it was more than 100 µM.

For orientation: GI50 means the concentration giving 50% growth inhibition. Usually TGI stands for the concentration giving total growth inhibition. Higher therefore signals less potent growth arrest.
